# Patent US20100216661A1, “Diagnostic Assay” (priority 2007, published 2010)
# Tests used:
# [1] = tested on: anti-Fy^b monoclonal antibody (LM447); assay: LiquiChip Ni-NTA microsphere bead assay (Luminex 100), anti-Fy^b; type: binding, Murine; details: FIG. 11; peptide with C-terminal 6 Histidine tag; Luminex 100 Analyser
# Experimental: (§1) Further confirmation that the peptide mimotopes can specifically bind antibodies raised to native blood group antigens was achieved following the immobilisation of peptide mimotopes onto polystyrene LiquiChip Ni-NTA microsphere beads (Qiagen).
# (§2) Peptide mimotopes (e.g. Fyb16; RhD12) were synthesised with a C-terminal tag consisting of 6 Histidine amino acids. Stock solutions (4 μg/ml) of the 6×His tagged peptide mimotopes were prepared in PBS/0.1% BSA. The peptides were immobilised onto the beads using the Ni-NTA groups attached to the surface of the beads, as follows. A 50 μl volume of a 4 μg/ml peptide stock (Fyb16 or RhD12) was mixed with an equal volume of LiquiChip Ni-NTA beads (Bead 50 or Bead 52, respectively). Following incubation with mixing at 4° C. overnight, the Bead/peptide mixture was diluted with 900 μl of PBS/0.1% BSA. The Bead/peptide mixture was vortexed for 2 minutes and then a 10 μl volume was aliquoted into the well of a 96-well, round-bottomed. ELISA plate (Nunc). […] Confirmation of bound monoclonal antibody was determined by the detection of a phycoerythrin fluorochrome signal. The intensity of the signal equates to the quantity of monoclonal antibody bound to the immobilised peptide mimotope.
# [2] = tested on: anti-Fy^b monoclonal antibody (LM447); assay: Modified gel agglutination assay with superparamagnetic TALON beads, anti-Fy^b; type: binding, Murine; details: FIG. 14; His-tagged peptide; TALON Dynabeads; NaCl gel card with sheep anti-mouse IgG; read visually; anti-RhD T27 as comparison chamber
# Experimental: (§3) The ability of peptide mimotopes to specifically bind antibodies was further tested using superparamagnetic polystyrene beads (TALON Dynabeads; Invitrogen) in a modified gel agglutination assay.
# (§4) A 50 μl volume of the magnetic beads was added to 700 μl of TBS (50 mM Tris-HCl pH7.5; 150 mM NaCl). Following mixing for 5 minutes at room temperature, the magnetic beads were isolated using a Magnetic Particle Concentrator (Invitrogen). The supernatant was discarded and the beads were washed for 5 minutes in 700 μl of TBS. The beads were again separated from the buffer using the MPC magnet, and then resuspended in 700 μl of TBS. Peptide mimotopes (e.g. Fyb16; RhD12) were synthesised with a C-terminal tag consisting of 6 Histidine amino acids. Stock solutions (100 μg/ml) of the 6×His tagged peptide mimotopes were prepared in PBS.
# To test the binding of a murine monoclonal antibody (e.g. LM447: anti-Fy^b monoclonal antibody), a 1 μl volume of sheep anti-mouse IgG is first added to the reaction chamber of an NaCl gel card and allowed to equilibrate with the gel matrix for 10 minutes at room temperature, prior to the addition of a 50 μl volume of diluted TALON beads, a 50 μl volume of diluted His-tagged peptide mimotope (e.g. Fyb16) and 100 μl of the test murine monoclonal antibody (e.g. LM447: anti-Fy^b). […] Again the reaction was read visually.
# [3] = tested on: anti-RhD monoclonal antibody (T27); assay: LiquiChip Ni-NTA microsphere bead assay (Luminex 100), anti-RhD; type: binding, Human; details: FIG. 12; peptide with C-terminal 6 Histidine tag; Luminex 100 Analyser
# Experimental: as §1, §2
# [4] = tested on: anti-RhD monoclonal antibody (T27); assay: Modified gel agglutination assay with superparamagnetic TALON beads, anti-RhD; type: binding, Human; details: FIG. 13; His-tagged peptide; TALON Dynabeads; NaCl gel card; read visually; anti-Fy^b LM447 as comparison chamber
# Experimental: as §3, §4
# A 50 μl volume of diluted TALON beads was placed in the reaction chamber of an NaCl gel card (ID Microtyping System; Diamed), together with a 50 μl volume of diluted His-tagged peptide mimotope (e.g. RhD12) and 100 μl of test human monoclonal antibody (e.g. T27: anti-RhD). The gel card was incubated at 37° C. for 1 hour in an Incubator-ID (DiaMed). Following incubation, the card was centrifuged for 10 minutes in an ID Centrifuge 24S (DiaMed). Antibody-positive reactions are visualised by a layer of beads upon the surface of the gel matrix. […]
Substance,Binding of anti-Fy^b antibody LM447 to peptide immobilised on LiquiChip Ni-NTA microsphere beads (phycoerythrin signal) [1],"Binding of anti-Fy^b antibody LM447 to peptide on superparamagnetic polystyrene beads, modified gel agglutination assay [2]",Binding of anti-RhD antibody T27 to peptide immobilised on LiquiChip Ni-NTA microsphere beads (phycoerythrin signal) [3],"Binding of anti-RhD antibody T27 to peptide on superparamagnetic polystyrene beads, modified gel agglutination assay [4]"
FQPNPPPSFAAP [Fyb16],specific binding,specific binding,,
"RhD12: RhD peptide mimotope, Table 4 (HQNPWLLWPRGF)",,,specific binding,specific binding
